Data taken from publication PMC5725665, “Discovery of a Highly Selective Cell‐Active Inhibitor of the Histone Lysine Demethylases KDM2/7” (Angewandte Chemie (International Ed. in English), 2017).
pIC50: −log10 of the molar value.

Tests used:
JMJD2C (KDM4C) = molecular target: T1, JMJD2C (KDM4C) (Homo sapiens, UniProt Q9H3R0); assay: biochemical; set-up: AlphaScreen histone demethylase activity assay
T1 sequence (Q9H3R0 1-1056): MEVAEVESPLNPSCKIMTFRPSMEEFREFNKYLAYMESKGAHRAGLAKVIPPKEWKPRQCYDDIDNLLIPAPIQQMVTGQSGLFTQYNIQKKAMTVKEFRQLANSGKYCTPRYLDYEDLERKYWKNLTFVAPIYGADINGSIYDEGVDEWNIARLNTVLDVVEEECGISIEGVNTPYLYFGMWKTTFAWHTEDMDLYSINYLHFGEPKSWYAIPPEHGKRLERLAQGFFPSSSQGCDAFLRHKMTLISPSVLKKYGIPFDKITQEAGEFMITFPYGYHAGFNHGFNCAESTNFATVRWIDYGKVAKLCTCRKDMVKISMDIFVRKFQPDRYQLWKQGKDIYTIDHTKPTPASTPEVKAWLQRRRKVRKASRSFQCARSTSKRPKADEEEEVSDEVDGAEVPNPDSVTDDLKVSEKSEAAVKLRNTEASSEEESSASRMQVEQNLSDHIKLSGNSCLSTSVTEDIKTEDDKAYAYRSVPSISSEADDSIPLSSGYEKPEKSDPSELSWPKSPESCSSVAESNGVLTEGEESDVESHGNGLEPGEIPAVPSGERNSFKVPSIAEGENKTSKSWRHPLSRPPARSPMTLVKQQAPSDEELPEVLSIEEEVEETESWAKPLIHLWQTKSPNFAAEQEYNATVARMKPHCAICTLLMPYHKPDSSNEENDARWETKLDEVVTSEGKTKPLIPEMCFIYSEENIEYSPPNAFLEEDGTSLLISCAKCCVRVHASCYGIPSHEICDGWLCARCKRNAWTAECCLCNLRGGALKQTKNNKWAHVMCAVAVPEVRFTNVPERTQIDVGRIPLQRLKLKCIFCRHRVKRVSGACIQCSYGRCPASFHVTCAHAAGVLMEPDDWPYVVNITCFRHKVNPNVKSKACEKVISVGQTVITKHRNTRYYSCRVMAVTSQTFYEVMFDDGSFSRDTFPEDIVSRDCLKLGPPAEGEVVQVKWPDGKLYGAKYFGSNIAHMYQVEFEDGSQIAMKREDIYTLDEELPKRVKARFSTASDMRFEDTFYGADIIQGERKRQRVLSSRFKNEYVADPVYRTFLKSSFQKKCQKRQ
Text: (§1) A base‐mediated 5‐endo‐trig cyclization of a C‐2‐substituted aromatic imine afforded the racemic indoline core with two adjacent stereocenters. Subsequent acylation of the indoline ring system conferred stability towards oxidation and provided a handle for modulating polarity. Finally, metal‐catalysed cross‐coupling of the aryl bromide provided access to a variety of linkers between the indoline core and pyrrolidine capping group. In total, 45 racemic compounds were synthesized, and IC50 values for inhibition of KDM2A were determined using two orthogonal enzyme activity assays: AlphaScreen25 and RapidFire MS26 (see Section S3.1 in the Supporting Information for complete inhibition data). Key structure–activity relationships are summarized below (Scheme 1 B, compounds 2–12). […] In immunofluorescence assays using HeLa cells ectopically expressing catalytically active KDM2A, a dose‐dependent increase in H3K36me2 staining was observed upon incubation with (S,S)‐6, reflecting augmented cellular H3K36me2 levels (Figure 2 A and Section S3.3). […] To profile its selectivity, (S,S)‐6 was tested for inhibitory activity against a panel of KDMs, methyllysine binding motifs, and epigenetic enzymes.

PHF8 (KDM7B) = PHF8 (KDM7B) (Homo sapiens, UniProt Q9UPP1); assay: biochemical; set-up: AlphaScreen histone demethylase activity assay; settings: read-out: KDM7B pIC50 (converted)
Chain of PHF8 (KDM7B) (Q9UPP1 whole entry): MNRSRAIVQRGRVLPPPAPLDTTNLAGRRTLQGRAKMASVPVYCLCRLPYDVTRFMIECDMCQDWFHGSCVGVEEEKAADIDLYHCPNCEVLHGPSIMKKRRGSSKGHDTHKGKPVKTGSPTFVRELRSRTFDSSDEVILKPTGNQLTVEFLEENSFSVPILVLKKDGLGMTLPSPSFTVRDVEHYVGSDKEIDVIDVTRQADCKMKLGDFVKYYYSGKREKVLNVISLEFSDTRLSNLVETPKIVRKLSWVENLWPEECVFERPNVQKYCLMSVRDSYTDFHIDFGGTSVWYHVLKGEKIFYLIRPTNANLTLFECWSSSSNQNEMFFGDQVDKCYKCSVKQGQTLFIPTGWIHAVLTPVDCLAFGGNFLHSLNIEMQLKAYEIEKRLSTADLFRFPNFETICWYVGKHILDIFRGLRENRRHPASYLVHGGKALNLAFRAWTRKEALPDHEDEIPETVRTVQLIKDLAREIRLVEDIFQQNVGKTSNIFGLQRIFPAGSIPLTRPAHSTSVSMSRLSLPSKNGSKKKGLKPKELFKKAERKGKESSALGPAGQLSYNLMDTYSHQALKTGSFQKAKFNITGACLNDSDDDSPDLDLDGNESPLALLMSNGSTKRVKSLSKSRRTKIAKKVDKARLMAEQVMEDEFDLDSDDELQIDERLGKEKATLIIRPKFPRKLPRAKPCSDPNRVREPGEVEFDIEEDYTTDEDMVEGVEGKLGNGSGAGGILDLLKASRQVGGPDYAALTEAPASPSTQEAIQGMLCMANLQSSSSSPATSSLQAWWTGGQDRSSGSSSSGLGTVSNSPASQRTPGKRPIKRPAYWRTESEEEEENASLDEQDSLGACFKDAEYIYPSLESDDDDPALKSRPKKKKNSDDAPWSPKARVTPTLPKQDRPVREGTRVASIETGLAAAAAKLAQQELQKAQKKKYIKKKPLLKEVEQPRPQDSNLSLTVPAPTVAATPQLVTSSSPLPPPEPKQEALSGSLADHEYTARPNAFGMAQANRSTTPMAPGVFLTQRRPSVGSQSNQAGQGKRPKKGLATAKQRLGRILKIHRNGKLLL
Text: as §1

JARID1C (KDM5C) = JARID1C (KDM5C) (Homo sapiens, UniProt P41229); assay: biochemical; set-up: AlphaScreen histone demethylase activity assay; settings: read-out: KDM5C pIC50 (converted)
Chain of JARID1C (KDM5C) (P41229 whole entry): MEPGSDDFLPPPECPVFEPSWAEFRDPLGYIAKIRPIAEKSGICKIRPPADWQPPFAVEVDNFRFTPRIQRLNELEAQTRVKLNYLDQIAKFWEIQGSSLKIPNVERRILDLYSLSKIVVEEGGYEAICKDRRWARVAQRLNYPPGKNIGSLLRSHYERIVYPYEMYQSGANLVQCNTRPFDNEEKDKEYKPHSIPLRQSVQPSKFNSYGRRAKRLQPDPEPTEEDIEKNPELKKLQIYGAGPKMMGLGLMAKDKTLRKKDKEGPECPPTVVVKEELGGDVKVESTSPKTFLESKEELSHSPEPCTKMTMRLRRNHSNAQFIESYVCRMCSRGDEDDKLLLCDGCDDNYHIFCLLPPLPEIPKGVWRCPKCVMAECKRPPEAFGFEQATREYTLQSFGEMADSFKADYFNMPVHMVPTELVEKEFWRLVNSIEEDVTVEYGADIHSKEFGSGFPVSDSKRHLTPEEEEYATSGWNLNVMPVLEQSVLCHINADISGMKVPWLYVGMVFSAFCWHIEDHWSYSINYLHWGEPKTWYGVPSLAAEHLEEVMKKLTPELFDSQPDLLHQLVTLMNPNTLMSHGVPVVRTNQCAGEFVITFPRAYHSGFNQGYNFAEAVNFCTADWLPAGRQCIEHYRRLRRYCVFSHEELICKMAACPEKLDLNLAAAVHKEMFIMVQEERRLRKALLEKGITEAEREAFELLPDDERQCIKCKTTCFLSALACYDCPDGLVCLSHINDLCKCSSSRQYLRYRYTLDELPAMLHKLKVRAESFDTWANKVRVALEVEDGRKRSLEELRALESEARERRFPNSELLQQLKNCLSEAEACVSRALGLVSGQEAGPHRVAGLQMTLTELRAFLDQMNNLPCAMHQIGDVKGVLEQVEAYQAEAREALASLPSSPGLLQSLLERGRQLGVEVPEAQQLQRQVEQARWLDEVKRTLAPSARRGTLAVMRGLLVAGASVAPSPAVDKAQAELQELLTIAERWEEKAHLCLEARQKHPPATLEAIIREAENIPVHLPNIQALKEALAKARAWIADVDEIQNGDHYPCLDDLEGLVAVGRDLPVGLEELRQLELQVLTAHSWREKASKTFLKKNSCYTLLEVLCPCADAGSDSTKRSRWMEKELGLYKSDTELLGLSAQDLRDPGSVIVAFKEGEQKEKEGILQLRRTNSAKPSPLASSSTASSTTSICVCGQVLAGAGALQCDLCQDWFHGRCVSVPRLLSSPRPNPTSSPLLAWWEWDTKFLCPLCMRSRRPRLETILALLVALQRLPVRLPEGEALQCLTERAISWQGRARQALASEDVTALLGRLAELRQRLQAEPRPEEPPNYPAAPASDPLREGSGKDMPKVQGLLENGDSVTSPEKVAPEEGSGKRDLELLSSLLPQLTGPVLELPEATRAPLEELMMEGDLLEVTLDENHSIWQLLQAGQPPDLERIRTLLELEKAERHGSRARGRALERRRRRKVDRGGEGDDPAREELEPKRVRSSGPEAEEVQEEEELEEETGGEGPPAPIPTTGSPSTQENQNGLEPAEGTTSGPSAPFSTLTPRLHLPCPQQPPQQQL
Text: as §1

KDM7A = molecular target: T2, KDM7A (Homo sapiens, UniProt Q6ZMT4); assay: AlphaScreen demethylase assay; type: biochemical
T2 construct: isolated enzyme
T2 sequence (Q6ZMT4 1-941): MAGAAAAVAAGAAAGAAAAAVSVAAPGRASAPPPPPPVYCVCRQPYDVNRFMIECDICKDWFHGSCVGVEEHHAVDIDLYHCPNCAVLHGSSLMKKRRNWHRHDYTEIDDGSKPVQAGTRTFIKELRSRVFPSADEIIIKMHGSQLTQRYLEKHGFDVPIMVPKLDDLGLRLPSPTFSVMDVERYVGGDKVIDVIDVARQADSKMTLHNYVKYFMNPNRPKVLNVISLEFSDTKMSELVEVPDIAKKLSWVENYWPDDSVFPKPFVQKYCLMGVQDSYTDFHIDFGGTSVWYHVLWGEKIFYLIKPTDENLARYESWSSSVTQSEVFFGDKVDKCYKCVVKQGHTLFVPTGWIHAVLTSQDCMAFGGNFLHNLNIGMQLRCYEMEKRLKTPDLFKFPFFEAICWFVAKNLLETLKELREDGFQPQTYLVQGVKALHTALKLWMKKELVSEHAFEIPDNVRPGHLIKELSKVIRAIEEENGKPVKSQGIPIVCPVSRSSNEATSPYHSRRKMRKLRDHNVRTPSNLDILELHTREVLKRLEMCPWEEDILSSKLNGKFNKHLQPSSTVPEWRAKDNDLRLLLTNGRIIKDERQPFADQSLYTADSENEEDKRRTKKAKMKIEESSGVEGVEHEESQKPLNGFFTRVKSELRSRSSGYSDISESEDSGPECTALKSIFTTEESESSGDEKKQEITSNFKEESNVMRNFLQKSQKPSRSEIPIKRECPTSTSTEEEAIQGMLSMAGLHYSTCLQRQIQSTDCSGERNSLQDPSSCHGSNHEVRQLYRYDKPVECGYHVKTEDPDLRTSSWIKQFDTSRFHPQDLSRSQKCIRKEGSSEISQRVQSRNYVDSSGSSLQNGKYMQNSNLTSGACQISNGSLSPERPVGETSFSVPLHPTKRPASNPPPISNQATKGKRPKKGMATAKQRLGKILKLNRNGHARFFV

## CC(=O)N1c2ccccc2[C@@](C#N)(c2ccccc2)[C@@H]1c1cncc(CCCCCCCN2CCCC2)c1 [(S,S)-6]
JMJD2C (KDM4C); read-out: KDM4C % Inhib. (10 uM)
  inhibition at 10 µM: 30.5%
JMJD2C (KDM4C); read-out: KDM4C pIC50 (converted)
  IC50: > 100 µM
PHF8 (KDM7B)
  IC50: 22.8 µM
JARID1C (KDM5C)
  IC50: 15.7 µM
KDM7A
  pIC50: 6.72
